Experimental data from patent US6995143B2, “Macrolides with antibacterial activity” (Basilea Pharmaceutica AG, priority 2002, dated 2006).
Converted amounts (≈) assume the structure as drawn.

Assays:
Assay type in all cases: cell-based
[1] = system: Haemophilus influenzae B1501; assay: MIC, standard agar dilution method using HTM medium; settings: for MIC: read-out: minimum inhibitory concentration (MIC), Strain M
Excerpt: (§1) The biological activities of compounds of the present invention against Haemophilus influenzae have been determined by standard agar dilution method using HTM medium (National Committee for Clinical Laboratory Standards. 2000. Methods for Dilution Antimicrobial Susceptibility Tests for Bacteria that Grow Aerobically, 5th edition. Approved standard M7-A5. National Committee for Clinical Laboratory Standards, Wayne, Pa.).

[2] = system: Haemophilus influenzae QK50; assay: as above; settings: for MIC: read-out: minimum inhibitory concentration (MIC), Strain L
Excerpt: as §1

[3] = system: Haemophilus influenzae 12214; assay: as above; settings: for MIC: read-out: minimum inhibitory concentration (MIC), Strain K
Excerpt: as §1

[4] = system: Haemophilus influenzae QK12/87; assay: as above; settings: for MIC: read-out: minimum inhibitory concentration (MIC), Strain I
Excerpt: as §1

[5] = system: Streptococcus pneumoniae SL199T; assay: MIC, standard microdilution technique; settings: for MIC: read-out: minimum inhibitory concentration (MIC), Strain G
Excerpt: (§2) The antibacterial activities of the compounds have been determined by standard microdilution technique (National Committee for Clinical Laboratory Standards. 2000. Methods for Dilution Antimicrobial Susceptibility Tests for Bacteria that Grow Aerobically, 5th edition. Approved standard M7-A5. National Committee for Clinical Laboratory Standards, Wayne, Pa.).

[6] = system: Staphylococcus aureus 745; assay: MIC, standard microdilution technique; settings: for MIC: read-out: minimum inhibitory concentration (MIC), Strain C
Excerpt: as §2

[7] = system: Streptococcus pneumoniae ¼; assay: MIC, standard microdilution technique
Excerpt: as §2

[8] = system: Streptococcus pneumoniae 12288; assay: MIC, standard microdilution technique; settings: for MIC: read-out: minimum inhibitory concentration (MIC), Strain H
Excerpt: as §2

[9] = system: Escherichia coli ATCC 25922; assay: MIC, standard microdilution technique; settings: for MIC: ATCC25922, read-out: minimum inhibitory concentration (MIC), Strain D
Excerpt: as §2

[10] = system: Streptococcus pneumoniae l/l; assay: MIC, standard microdilution technique
Excerpt: as §2

[11] = system: Staphylococcus aureus 1086; assay: MIC, standard microdilution technique; settings: for MIC: read-out: minimum inhibitory concentration (MIC), Strain B
Excerpt: as §2

[12] = system: Staphylococcus aureus ATCC 29213; assay: MIC, standard microdilution technique; settings: for MIC: ATCC29213, read-out: minimum inhibitory concentration (MIC), Strain A
Excerpt: as §2

minimum inhibitory concentration (MIC), Strain M [1] [µg/mL] | minimum inhibitory concentration (MIC), Strain L [2] [µg/mL] | minimum inhibitory concentration (MIC), Strain K [3] [µg/mL] | minimum inhibitory concentration (MIC), Strain I [4] [µg/mL] | minimum inhibitory concentration (MIC), Strain G [5] [µg/mL] | minimum inhibitory concentration (MIC), Strain C [6] [µg/mL] | minimum inhibitory concentration (MIC), Strain F [7] [µg/mL] | minimum inhibitory concentration (MIC), Strain H [8] [µg/mL] | minimum inhibitory concentration (MIC), Strain D [9] [µg/mL] | minimum inhibitory concentration (MIC), Strain E [10] | minimum inhibitory concentration (MIC), Strain B [11] | minimum inhibitory concentration (MIC), Strain A [12] | SMILES | other results
8 (≈ 9.11 µM) | 8 (≈ 9.11 µM) | 8 (≈ 9.11 µM) | 8 (≈ 9.11 µM) | 2 (≈ 2.28 µM) | >32 | >32 | >32 | >32 | <=0.06 μg/ml | <=0.06 μg/ml | <=0.06 μg/ml | CC[C@H]1OC(=O)[C@H](C)C(=O)[C@H](C)[C@@H](O[C@@H]2O[C@H](C)C[C@H](N(C)C)[C@H]2O)[C@](C)(OC)C[C@@H](C)C(=O)[C@H](C)[C@H]2[C@@H](SCCNS(=O)(=O)c3cccc4cccnc34)C(=O)O[C@@]21C [Example 29] | –
– | – | – | – | – | – | – | – | – | – | – | – | CC[C@H]1OC(=O)[C@H](C)C(=O)[C@H](C)[C@@H](O[C@@H]2O[C@H](C)C[C@H](N(C)C)[C@H]2O)[C@](C)(OC)C[C@@H](C)C(=O)[C@H](C)[C@H]2[C@@H](SCCNC(=O)c3cnc4ccccc4c3)C(=O)O[C@@]21C (single isomer, unassigned) [Example 27, (3R or S, 3aR, 4R or S, 6R, 8R, 9R, 10R, 12R, 15R, 15aS)-15-Ethyloctahydro-8-methoxy-4,6,8,10,12,15a-hexamethyl-3-[[2-[(3-quinolinylcarbonyl)amino]ethyl]thio]-9-[[3,4,6-trideoxy-3-(dimethylamino)-β-D-xylo-hexopyranosyl]oxy]-2H-furo [2,3-c] oxacyclotetradecin-2,5,11,13 (3H,6H,12H)-tetrone] | MIC [1]: 8 µg/mL (≈ 9.5 µM); MIC [2]: 16 µg/mL (≈ 19 µM); MIC [3]: 16 µg/mL (≈ 19 µM); MIC [4]: 16 µg/mL (≈ 19 µM); MIC [5]: 8 µg/mL (≈ 9.5 µM); MIC [6]: > 32 µg/mL; MIC ([7]; read-out: minimum inhibitory concentration (MIC), Strain F): 8 µg/mL (≈ 9.5 µM); MIC [8]: > 32 µg/mL; MIC [9]: > 32 µg/mL; MIC ([10]; read-out: minimum inhibitory concentration (MIC), Strain E): ≤ 0.06 µg/mL; MIC [11]: ≤ 0.06 µg/mL; MIC [12]: ≤ 0.06 µg/mL
8 (≈ 9.66 µM) | 8 (≈ 9.66 µM) | 16 (≈ 19.3 µM) | 8 (≈ 9.66 µM) | >32 | >32 | 4 (≈ 4.83 µM) | >32 | >32 | <=0.06 μg/ml | <=0.06 μg/ml | 0.125 µg/mL (≈ 0.151 µM) | CC[C@H]1OC(=O)[C@H](C)C(=O)[C@H](C)[C@@H](O[C@@H]2O[C@H](C)C[C@H](N(C)C)[C@H]2O)[C@](C)(OC)C[C@@H](C)C(=O)[C@H](C)[C@H]2[C@@H](SCC(=O)Nc3ccc4ccccc4n3)C(=O)O[C@@]21C [Example 37] | –
– | – | – | – | – | – | – | – | – | – | – | – | CC[C@H]1OC(=O)[C@H](C)C(=O)[C@H](C)[C@@H](O[C@@H]2O[C@H](C)C[C@H](N(C)C)[C@H]2O)[C@](C)(OC)C[C@@H](C)C(=O)[C@H](C)[C@H]2[C@@H](S(=O)(=O)CCNC(=O)c3cccnc3)C(=O)O[C@@]21C (single isomer, unassigned) [Example 43, (3R or S, 3aR, 4R or S, 6R, 8R, 9R, 10R, 12R, 15R, 15aS) -15-Ethyloctahydro-8-methoxy-4,6,8,10,12,15a-hexamethyl-3-[[2-[(3-pyridinylcarbonyl)amino]ethyl]sulfonyl]-9-[[-3,4,6-trideoxy-3-(dimethylamino)-β-D-xylo-hexopyranosyl]oxy]-2H-furo [2,3-c] oxacyclotetradecin-2,5,11,13 (3H,6H,12H)-tetrone] | MIC [1]: 8 µg/mL (≈ 9.71 µM); MIC [2]: 16 µg/mL (≈ 19.4 µM); MIC [3]: 16 µg/mL (≈ 19.4 µM); MIC [4]: 16 µg/mL (≈ 19.4 µM); MIC [5]: 32 µg/mL (≈ 38.8 µM); MIC [6]: > 32 µg/mL; MIC [8]: > 32 µg/mL; MIC [9]: > 32 µg/mL; MIC [11]: 1 µg/mL (≈ 1.21 µM); MIC [12]: 2 µg/mL (≈ 2.43 µM)
16 (≈ 19 µM) | 16 (≈ 19 µM) | 16 (≈ 19 µM) | 16 (≈ 19 µM) | 32 (≈ 38 µM) | >32 | 32 (≈ 38 µM) | >32 | >32 | <=0.06 μg/ml | 0.125 µg/mL (≈ 0.148 µM) | 0.125 µg/mL (≈ 0.148 µM) | CC[C@H]1OC(=O)[C@H](C)C(=O)[C@H](C)[C@@H](O[C@@H]2O[C@H](C)C[C@H](N(C)C)[C@H]2O)[C@](C)(OC)C[C@@H](C)C(=O)[C@H](C)[C@H]2[C@@H](SCCC(=O)Nc3cnc4ccccc4c3)C(=O)O[C@@]21C (single isomer, unassigned) [Example 42] | –
8 (≈ 9.96 µM) | 8 (≈ 9.96 µM) | 8 (≈ 9.96 µM) | 8 (≈ 9.96 µM) | 16 (≈ 19.9 µM) | >32 | 2 (≈ 2.49 µM) | >32 | >32 | <=0.06 μg/ml | 0.25 µg/mL (≈ 0.311 µM) | 0.25 µg/mL (≈ 0.311 µM) | CC[C@H]1OC(=O)[C@H](C)C(=O)[C@H](C)[C@@H](O[C@@H]2O[C@H](C)C[C@H](N(C)C)[C@H]2O)[C@](C)(OC)C[C@@H](C)C(=O)[C@H](C)[C@H]2[C@@H](SCC(=O)N3CCc4ccccc43)C(=O)O[C@@]21C [Example 18] | –
8 (≈ 9.66 µM) | 16 (≈ 19.3 µM) | 16 (≈ 19.3 µM) | 16 (≈ 19.3 µM) | 8 (≈ 9.66 µM) | >32 | 32 (≈ 38.6 µM) | 32 (≈ 38.6 µM) | >32 | <=0.06 μg/ml | <=0.06 μg/ml | <=0.06 μg/ml | CC[C@H]1OC(=O)[C@H](C)C(=O)[C@H](C)[C@@H](O[C@@H]2O[C@H](C)C[C@H](N(C)C)[C@H]2O)[C@](C)(OC)C[C@@H](C)C(=O)[C@H](C)[C@H]2[C@@H](SCC(=O)Nc3cnc4ccccc4c3)C(=O)O[C@@]21C [Example 39] | –

SMILES | minimum inhibitory concentration (MIC), Strain M [1] [µg/mL] | minimum inhibitory concentration (MIC), Strain L [2] [µg/mL] | minimum inhibitory concentration (MIC), Strain K [3] [µg/mL] | minimum inhibitory concentration (MIC), Strain I [4] [µg/mL] | minimum inhibitory concentration (MIC), Strain G [5] [µg/mL] | minimum inhibitory concentration (MIC), Strain C [6] [µg/mL] | minimum inhibitory concentration (MIC), Strain F [7] [µg/mL] | minimum inhibitory concentration (MIC), Strain H [8] [µg/mL] | minimum inhibitory concentration (MIC), Strain D [9] [µg/mL] | minimum inhibitory concentration (MIC), Strain E [10] | minimum inhibitory concentration (MIC), Strain B [11] | minimum inhibitory concentration (MIC), Strain A [12] | other results
CC[C@H]1OC(=O)[C@H](C)C(=O)[C@H](C)[C@@H](O[C@@H]2O[C@H](C)C[C@H](N(C)C)[C@H]2O)[C@](C)(OC)C[C@@H](C)C(=O)[C@H](C)[C@H]2[C@@H](SCCNC(=O)c3ccc(-n4ccnc4)nc3)C(=O)O[C@@]21C (single isomer, unassigned) [Example 48] | 16 (≈ 18.6 µM) | 16 (≈ 18.6 µM) | 32 (≈ 37.3 µM) | 16 (≈ 18.6 µM) | >32 | >32 | >32 | >32 | >32 | <=0.06 μg/ml | 0.25 µg/mL (≈ 0.291 µM) | 0.25 µg/mL (≈ 0.291 µM) | –
CC[C@H]1OC(=O)[C@H](C)C(=O)[C@H](C)[C@@H](O[C@@H]2O[C@H](C)C[C@H](N(C)C)[C@H]2O)[C@](C)(OC)C[C@@H](C)C(=O)[C@H](C)[C@H]2[C@@H](SCC(=O)Nc3ccccc3-c3ccccc3OC)C(=O)O[C@@]21C (single isomer, unassigned) [Example 53] | 16 (≈ 18.1 µM) | 8 (≈ 9.06 µM) | 16 (≈ 18.1 µM) | 8 (≈ 9.06 µM) | 16 (≈ 18.1 µM) | >32 | 1 (≈ 1.13 µM) | >32 | >32 | <=0.06 μg/ml | 0.25 µg/mL (≈ 0.283 µM) | 0.5 µg/mL (≈ 0.566 µM) | –
